US20200171118A1
Like-named read-outs stand apart in the source and are kept apart here.

How the values were obtained:
Escherichia coli MV1184 = test: MIC/MBC determination, sterilizing effect (microplate, BHI liquid medium); assay type: cell-based; details: E. coli MV1184; substance 12.5 to 20 ppm, sodium chlorite about 0.14 mM to 0.22 mM
[1] = Lewis acidity measuring method (1): rate of oxidation of CoTPP by O2 in the presence of the Lewis acid; assay type: physicochemical; details: for Lewis acidity (ΔE value): calculated from rate of oxidization of CoTPP with O2

Row | Compound | sterilizing action (sterilizing effect) of drug made from the substance and sodium chlorite (Escherichia coli MV1184) | Lewis acidity (ΔE value) [1] [eV] | further results
1 | CCCCCCCCCCCCCCCCCC[N+](C)(C)Cc1ccccc1.[Cl-] | has a sterilizing action (sterilizing effect) | 0.52 | kcat, reaction rate constant of reaction between CoTPP and oxygen in the presence of a Lewis acid ([1]; acetonitrile, saturated O2, room temperature): 0.18 M^−2 s^−1
2 | CC(=O)OCC[N+](C)(C)C [Acetylcholine] | – | 0.51 | –
3 | Cl.N [Ammonium chloride] | has a sterilizing action (sterilizing effect) | 0.66 | –
4 | CC[N+](CC)(CC)Cc1ccccc1.[Cl-] [Benzyltriethyl ammonium chloride] | – | 0.54 | –
5 | C[N+](C)(C)CC(=O)O [Betaine] | – | 0.67 | –
6 | C[N+](C)(C)CCOC(N)=O [Carbamylcholine] | – | 0.52 | –
7 | N[C@@H](CC(=O)O)C(=O)O [L-aspartate] | has a sterilizing action (sterilizing effect) | – | –
8 | N[C@@H](CO)C(=O)O [L-serine] | has a sterilizing action (sterilizing effect) | – | –
9 | Cc1cc2nc3cc(C)c(N)cc3[n+](-c3ccccc3)c2cc1N.[Cl-] [Safranine] | – | 0.67 | –
10 | CCCC[N+](CCCC)(CCCC)CCCC.[Cl-] [Tetrabutylammonium chloride] | has a sterilizing action (sterilizing effect) | 0.63 | –
11 | C[N+](C)(C)C.[Cl-] [Tetramethylammonium chloride] | – | 0.50 | –
12 | C[n+]1cccc(C(=O)[O-])c1 [Trigonelline] | – | 0.69 | –
13 | NCC(=O)O [glycine] | has a sterilizing action (sterilizing effect) | – | –
14 | CN.Cl [methylammonium chloride] | has a sterilizing action (sterilizing effect) | 0.70 | –
15 | C[n+]1ccccc1C=NO.[I-] [pralidoxime methyl iodide] | – | 0.60 | –
16 | O=C(O)[C@@H]1CCCN1 [proline] | has a sterilizing action (sterilizing effect) | – | –
17 | CCCC[N+](CCCC)(CCCC)CCCC.F[P-](F)(F)(F)(F)F [tetrabutylammonium hexafluorophosphate] | – | – | kcat, reaction rate constant of reaction between CoTPP and oxygen in the presence of a Lewis acid [1]: >0.1 M^−2 s^−1
18 | benzethonium chloride | has a sterilizing action (sterilizing effect) | – | –
19 | oxidized glutathione | has a sterilizing action (sterilizing effect) | – | –
